Experiments:
[1] = target: T1, adenosine A1 receptor (Bos taurus, UniProt P28190); experiment: Receptor affinity (radioligand binding), A1, [3H]CHA; set-up: species or system bovine; conditions: for Selectivity Ratio (A2 Ki /A1 Ki): radioligand binding; for Ki: [3H]CHA, room temperature, 2 hours, tissues listed: bovine caudate, guinea pig cortex, guinea pig striatum (only Example 13 marked guinea pig)
T1 construct: were homogenized with a Brinkman polytron and the membranes were collected by centrifugation; from tissue; host or cells: bovine caudate membranes
T1 sequence (P28190 1-326): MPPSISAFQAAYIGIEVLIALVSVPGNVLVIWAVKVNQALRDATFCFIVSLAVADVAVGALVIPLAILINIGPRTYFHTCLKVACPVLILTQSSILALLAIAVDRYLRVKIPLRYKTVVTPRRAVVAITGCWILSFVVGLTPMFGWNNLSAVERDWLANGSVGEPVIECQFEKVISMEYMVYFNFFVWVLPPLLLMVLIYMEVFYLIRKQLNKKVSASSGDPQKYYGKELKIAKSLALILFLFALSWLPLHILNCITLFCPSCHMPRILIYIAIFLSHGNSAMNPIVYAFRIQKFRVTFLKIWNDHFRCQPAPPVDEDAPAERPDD
Method: (§1) 1. Receptor Affinity Experiments (Radioligand Binding)
(§2) Tissues (bovine caudate, guinea pig cortex, guinea pig striatum) were homogenized with a Brinkman polytron and the membranes were collected by centrifugation at 40,000×g at 4° C. for 10 min. The membranes were washed by resuspension and centrifugation, resuspended, and incubated in the presence of 1 U/ml adenosine deaminase for 15-30 min. at 37° C. The membranes were diluted, centrifuged once, and resuspended to a final concentration of 0.5-2 mg protein/ml. Adenosine deaminase (0.1 U/ml) was included in the final resuspension. Assays were initiated by addition of membranes. The compounds of the present invention were subjected to the following experimental conditions: A1 determinations/incubated with [^3 H]CHA at room temperature for 2 hours, A2 determinations/incubated with [^3 H]NECA at room temperature for 1 hour. Assays were terminated by filtration, and the filters were counted in scintillation counters.

[2] = target: T2, adenosine A1 receptor (Cavia porcellus, UniProt P47745); experiment: Receptor affinity (radioligand binding), A1, [3H]CHA, guinea pig tissue; conditions: room temperature, 2 hours, value obtained using guinea pig tissue
T2 construct: from tissue; host or cells: isolated guinea pig left atria
T2 sequence (P47745 1-326): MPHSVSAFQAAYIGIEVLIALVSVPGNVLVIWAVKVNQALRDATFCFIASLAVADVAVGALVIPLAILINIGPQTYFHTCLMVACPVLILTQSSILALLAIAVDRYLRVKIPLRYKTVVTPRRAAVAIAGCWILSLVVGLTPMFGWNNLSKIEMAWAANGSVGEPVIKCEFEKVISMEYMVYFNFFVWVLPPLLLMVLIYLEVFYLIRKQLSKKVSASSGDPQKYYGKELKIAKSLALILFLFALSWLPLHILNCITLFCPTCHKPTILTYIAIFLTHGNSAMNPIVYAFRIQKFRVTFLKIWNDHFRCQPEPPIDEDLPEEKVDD
Method: as §1, §2
*This value was obtained using guinea pig tissue.

[3] = target: T2, adenosine A1 receptor; experiment: A1 in vitro functional test: negative inotropic response, left atria, antagonism of NECA; assay type: cell-based, guinea pig; conditions: for Selectivity Ratio (A2 KB /A1 KB): functional; for Kb: guinea pig left atria, electrically evoked twitch, NECA agonist, 31° C, Schild plot, read-out: A1 KB (antagonist dissociation constant)
Method: 2. Adenosine--A1 /A2 In Vitro Functional Tests
(A1 Assay: Negative inotropic response)-Guinea pig left atria were placed in organ baths filled with Krebs Henseleit solution gassed with 95% O2 and 5% CO2 and maintained at a temperature of 31° C. An initial resting tension of 1 gm. was placed on each tissue, which was allowed to equilibrate. Atria were stimulated electrically to produce twitch responses. A dose-response curve for the inhibition of the electrically-evoked twitch response was obtained by cumulative addition of the adenosine agonist […]. After the washout of the tissue, a fixed concentration of test compound was added and the tissue allowed to equilibrate for 1 hr. before cumulative additions of the adenosine agonist 5'-N-ethylcarboxamidoadenosine (NECA) to generate a new dose response curve. This procedure was repeated with different fixed concentrations of test compounds to generate a family of dose response curves. Schild plots were constructed from the resultant concentration-effect curves, and KB (antagonist dissociation constant) values were obtained. The results (see Table VII) are expressed as KB values (concentration of test compound such that one-half of the tissue adenosine receptor population is occupied by the test compound).

[4] = target: adenosine A2 receptor; experiment: Receptor affinity (radioligand binding), A2, [3H]NECA; set-up: species or system bovine / guinea pig; conditions: room temperature, 1 hour
Method: as §1, §2

Structure (SMILES): CC(C)N(C)c1nc2c(N[C@H]3C[C@H]4CC[C@@H]3C4)ncnc2n1C (relative stereo) [Example 13, (±)-N^6-(endo-2'-norbornyl)-8-isopropylmethylamino-9-methyladenine]
- Selectivity Ratio (A2 Ki /A1 Ki) [1]: 166
- Ki [2]: 6.31 nM
- Selectivity Ratio (A2 KB /A1 KB) [3]: > 20000
- Kb [3]: 5 nM
- Ki [4]: 1050 nM

Structure (SMILES): CN(C)c1nc2c(NC3CCCC3)ncnc2n1C [Example 8, N^6-cyclopentyl-8-dimethylamino-9-methyladenine]
- Ki [1]: 6.17 nM
- Selectivity Ratio (A2 Ki /A1 Ki) [1]: 219
- Kb [3]: 501 nM
- Ki [4]: 1350 nM

Structure (SMILES): CSc1nc2c(NC3CCCC3)ncnc2n1C [Example 12, N^6-cyclopentyl-8-methylthio-9-methyladenine]
- Ki [1]: 2.5 nM
- Selectivity Ratio (A2 Ki /A1 Ki) [1]: 145
- Kb [3]: 71 nM
- Ki [4]: 363 nM

Structure (SMILES): Cn1cnc2c(NC3CCCCC3)ncnc21 [Example 47, N^6-cyclohexyl-9-methyladenine, reference compound]
- Ki [1]: 45.7 nM
- Selectivity Ratio (A2 Ki /A1 Ki) [1]: 241
- Selectivity Ratio (A2 KB /A1 KB) [3]: > 152
- Kb [3]: 2080 nM
- Ki [4]: 11000 nM

Structure (SMILES): Cn1cnc2c(NC3CCCC3)ncnc21 [Example 48, N^6-cyclopentyl-9-methyladenine, reference compound]
- Ki [1]: 10 nM
- Selectivity Ratio (A2 Ki /A1 Ki) [1]: 501
- Selectivity Ratio (A2 KB /A1 KB) [3]: > 395
- Kb [3]: 759 nM
- Ki [4]: 5010 nM

Source: US5670501A, “N-substituted 9-alkyladenines” (Discovery Therapeutics, Inc., priority 1994, dated 1997)
